The target of one assay is T1, M4 muscarinic receptor (Homo sapiens, UniProt P08173).
T1 construct: expressed in transfected cells; host or cells: CHO (M4-CHO)
T1 sequence (P08173 1-479): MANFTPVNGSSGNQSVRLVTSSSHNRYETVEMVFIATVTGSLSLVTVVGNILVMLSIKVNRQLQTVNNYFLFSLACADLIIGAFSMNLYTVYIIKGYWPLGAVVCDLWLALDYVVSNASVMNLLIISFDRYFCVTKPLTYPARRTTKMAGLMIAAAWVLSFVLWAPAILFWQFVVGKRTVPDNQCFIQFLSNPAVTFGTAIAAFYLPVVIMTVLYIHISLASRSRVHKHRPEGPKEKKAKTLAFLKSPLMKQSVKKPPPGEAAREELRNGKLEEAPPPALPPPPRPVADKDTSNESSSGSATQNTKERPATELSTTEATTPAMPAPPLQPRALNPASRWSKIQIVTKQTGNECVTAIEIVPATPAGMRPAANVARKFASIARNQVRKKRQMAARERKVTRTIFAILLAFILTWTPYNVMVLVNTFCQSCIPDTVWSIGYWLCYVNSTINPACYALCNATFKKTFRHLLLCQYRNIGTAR
Put plainly: Functional mobilization of intracellular calcium (FLIPR) in M4-CHO cells. The format is cell-based. Conditions: Table 4; for Emax: 100% efficacy is the maximum response obtained with the Carbachol control; for M4 Activity: modulating M4 receptor. In outline: (§1)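 Two modes: direct compound addition for agonism, or 15 min compound pre-incubation (or co-application) before carbachol at EC80 for inhibition. Calcium signal from Fluo-3 AM or Calcium 3 dye in CHO cells, 1 mM probenecid, pH 7.4, read 60 sec at 488/540 nm; DMSO 0.5% final.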
On the technique in general: Calcium assays in cells follow changes in intracellular calcium, usually with a dye or a luminescent sensor.

The next assay deals with T2, M1 muscarinic receptor (Homo sapiens, UniProt P11229).
T2 construct: expressed in transfected cells; host or cells: CHO (M1-CHO)
T2 sequence (P11229 1-460): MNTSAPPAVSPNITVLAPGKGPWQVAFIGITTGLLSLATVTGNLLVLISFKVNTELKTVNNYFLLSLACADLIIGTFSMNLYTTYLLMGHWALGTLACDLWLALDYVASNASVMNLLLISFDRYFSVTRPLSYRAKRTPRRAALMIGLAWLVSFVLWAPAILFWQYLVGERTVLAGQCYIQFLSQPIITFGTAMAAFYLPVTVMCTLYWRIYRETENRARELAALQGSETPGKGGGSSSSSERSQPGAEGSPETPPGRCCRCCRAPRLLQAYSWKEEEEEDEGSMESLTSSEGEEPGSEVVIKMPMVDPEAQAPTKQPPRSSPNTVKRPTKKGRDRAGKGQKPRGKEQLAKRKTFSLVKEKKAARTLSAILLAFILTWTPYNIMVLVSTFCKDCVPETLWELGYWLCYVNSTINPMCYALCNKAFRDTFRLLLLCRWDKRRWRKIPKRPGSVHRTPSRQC
Put plainly: Functional mobilization of intracellular calcium (FLIPR) in M1-CHO cells. The format is cell-based. Conditions: Table 4; for Emax: 100% efficacy is the maximum response obtained with the Carbachol control; for M1 Activity: modulating M1 receptor. In a few lines: as §1

Each structure is given as a SMILES string.

For orientation: Emax means the greatest response seen or fitted, relative to the assay's reference.

Take `CC(=O)N[C@H]1CC2(CCN(CC3CC4C=CC3C4)C2)c2ccc(F)cc21` (stereo partly drawn) [compound 692]: at M4 muscarinic receptor, the Emax is 25 to 100% and the “M4 Activity” value was “xxx (activity was measured to be less than 2.0 μM)”. Further, on M1 muscarinic receptor, the maximal response (Emax) was 25 to 100% and the “M1 Activity” value is recorded as “xxx (activity was measured to be less than 2.0 μM)”.
Take `CCC#CCOC(=O)N1CCC(N2CCC3(CC2)CN(C(=O)N(C)C)c2ccc(F)cc23)CC1` [compound 694]: on M4 muscarinic receptor, the Emax was 25 to 100% and the “M4 Activity” value is recorded as “xxx (activity was measured to be less than 2.0 μM)”. Moreover, at M1 muscarinic receptor, the Emax is 25 to 100% and the “M1 Activity” value is “xxx (activity was measured to be less than 2.0 μM)”.
As for `CCOC(=O)N1CC[C@H](CN2CCC3(CC2)CN(C(=O)N(C)C)c2ccc(F)cc23)C1` [compound 695], at M4 muscarinic receptor, the maximal response (Emax) was in the range of 25 to 100% and the “M4 Activity” value is given as “xxx (activity was measured to be less than 2.0 μM)”. In addition, at M1 muscarinic receptor, the Emax is 25 to 100% and the “M1 Activity” value is on record as “xxx (activity was measured to be less than 2.0 μM)”.
Take `CC(=O)N[C@H]1CCC2(CCN([C@@H]3CC4CC[C@@H]3C4)CC2)c2ccccc21` [compound 696]: at M4 muscarinic receptor, the maximum response (Emax) is 25 to 100% and the “M4 Activity” value is “xxx (activity was measured to be less than 2.0 μM)”. At M1 muscarinic receptor, the Emax fell in the range of 25 to 100%; the “M1 Activity” value is “xx (activity was measured to be between 2.0 μM and 5.0 μM)”.
As to `CC(=O)CN1CCC(N2CCC3(CC2)CN(C(C)=O)c2ccc(F)cc23)CC1` [compound 697], at M4 muscarinic receptor, the Emax was < 25% and the “M4 Activity” value is on record as “x (activity was measured to be greater than 5.0 μM)”. Further, at M1 muscarinic receptor, the maximal response (Emax) lay within 25 to 100% and the “M1 Activity” value is “x (activity was measured to be greater than 5.0 μM)”.
Turning to `CCOC(=O)N1CCCC(N2CCC3(CC2)CN(C(=O)N(C)C)c2ccc(F)cc23)CC1` (stereo not drawn) [compound 698], at M4 muscarinic receptor, the maximum response (Emax) was > 100% and the “M4 Activity” value is recorded as “xxx (activity was measured to be less than 2.0 μM)”. Besides, at M1 muscarinic receptor, the Emax is > 100% and the “M1 Activity” value was “xxx (activity was measured to be less than 2.0 μM)”.
For `CCCN1CCC(N2CCC3(CC2)CN(C(C)=O)c2ccc(F)cc23)CC1` [compound 699], at M4 muscarinic receptor, the Emax was < 25% and the “M4 Activity” value is “x (activity was measured to be greater than 5.0 μM)”. Also, at M1 muscarinic receptor, the maximal effect (Emax) is < 25% and the “M1 Activity” value was “x (activity was measured to be greater than 5.0 μM)”.
In the case of `CCOC(=O)N1CCC(N2CCC3(CC2)CN(c2nc(C)ns2)c2ccccc23)CC1` [compound 700], at M4 muscarinic receptor, the Emax is > 100% and the “M4 Activity” value is “xxx (activity was measured to be less than 2.0 μM)”. Besides, on M1 muscarinic receptor, the Emax is > 100% and the “M1 Activity” value is “xxx (activity was measured to be less than 2.0 μM)”.
In the case of `CN(C)C(=O)N1CC2(CCN(C3CCN(C(=O)C4CC4)CC3)CC2)c2cc(F)ccc21` [compound 701], on M4 muscarinic receptor, the Emax is 25 to 100% and the “M4 Activity” value is given as “xxx (activity was measured to be less than 2.0 μM)”. Also, on M1 muscarinic receptor, the Emax was in the range of 25 to 100% and the “M1 Activity” value is “xxx (activity was measured to be less than 2.0 μM)”.
With `CCO/N=C1\CC2(CCN(CC3CCCCC3)CC2)c2cc(Cl)ccc21` [compound 702], at M4 muscarinic receptor, the maximum response (Emax) lay in the range of 25 to 100% and the “M4 Activity” value is on record as “x (activity was measured to be greater than 5.0 μM)”. For the same compound, at M1 muscarinic receptor, the Emax lay within 25 to 100% and the “M1 Activity” value is listed as “x (activity was measured to be greater than 5.0 μM)”.
For `CC(=O)N[C@H]1CC2(CCN(C3CCN(C)CC3)CC2)c2ccccc21` [compound 703], at M4 muscarinic receptor, the maximum response (Emax) is < 25% and the “M4 Activity” value was “x (activity was measured to be greater than 5.0 μM)”. At M1 muscarinic receptor, the Emax is < 25% and the “M1 Activity” value was “x (activity was measured to be greater than 5.0 μM)”.
As for `CC(C)OC(=O)N1CCCC(N2CCC3(CC2)CN(C(=O)N(C)C)c2ccc(F)cc23)CC1` (stereo not drawn) [compound 704], on M4 muscarinic receptor, the maximal effect (Emax) was in the range of 25 to 100% and the “M4 Activity” value is on record as “xxx (activity was measured to be less than 2.0 μM)”. Also, at M1 muscarinic receptor, the Emax lay within 25 to 100% and the “M1 Activity” value is reported as “xxx (activity was measured to be less than 2.0 μM)”.
`Fc1ccc2c(c1)C1(CCN(C3CC4CCC3O4)CC1)CN2` (stereo not drawn) [compound 705]: at M4 muscarinic receptor, the Emax was < 25% and the “M4 Activity” value is “x (activity was measured to be greater than 5.0 μM)”. In addition, at M1 muscarinic receptor, the Emax was < 25% and the “M1 Activity” value was “x (activity was measured to be greater than 5.0 μM)”.
Take `CCCOC(=O)N1CC[C@@H](CN2CCC3(CC2)CN(C(=O)N(C)C)c2ccc(F)cc23)C1` [compound 706]: at M4 muscarinic receptor, the Emax was in the range of 25 to 100% and the “M4 Activity” value was “xxx (activity was measured to be less than 2.0 μM)”. Further, at M1 muscarinic receptor, the Emax was in the range of 25 to 100% and the “M1 Activity” value is recorded as “xxx (activity was measured to be less than 2.0 μM)”.
With `CC(=O)N[C@H]1CC2(CCN(C3CCN(c4cccc(F)n4)CC3)CC2)c2ccccc21` [compound 708], at M4 muscarinic receptor, the Emax was 25 to 100% and the “M4 Activity” value was “xxx (activity was measured to be less than 2.0 μM)”. Moreover, on M1 muscarinic receptor, the maximal response (Emax) was in the range of 25 to 100% and the “M1 Activity” value was “xxx (activity was measured to be less than 2.0 μM)”.
As to `CC(=O)NC1CCC2(CCN(CCC3CCOCC3)CC2)c2ccccc21` (stereo not drawn) [compound 709], at M4 muscarinic receptor, the Emax was < 25% and the “M4 Activity” value is “xxx (activity was measured to be less than 2.0 μM)”. In addition, at M1 muscarinic receptor, the maximal response (Emax) is 25 to 100% and the “M1 Activity” value is given as “xxx (activity was measured to be less than 2.0 μM)”.
With `CC(=O)N1CC2(CCN(C3CCN(c4nn[nH]n4)CC3)CC2)c2ccccc21` [compound 710], on M4 muscarinic receptor, the Emax is 25 to 100% and the “M4 Activity” value is “x (activity was measured to be greater than 5.0 μM)”. Besides, at M1 muscarinic receptor, the Emax lay in the range of 25 to 100% and the “M1 Activity” value is “x (activity was measured to be greater than 5.0 μM)”.
In the case of `CN(C)C(=O)N1CC2(CCN(C3CCN(c4ccccc4F)CC3)CC2)c2cc(F)ccc21` [compound 711], at M4 muscarinic receptor, the Emax was < 25% and the “M4 Activity” value is “x (activity was measured to be greater than 5.0 μM)”. Moreover, on M1 muscarinic receptor, the maximum response (Emax) lay within 25 to 100%; the “M1 Activity” value is “xx (activity was measured to be between 2.0 μM and 5.0 μM)”.
In the case of `CCOC(=O)N1CCC(N2CCC3(CC2)CN(C(=O)NCc2ccccc2)c2ccccc23)CC1` [compound 712], on M4 muscarinic receptor, the maximum response (Emax) was 25 to 100% and the “M4 Activity” value is reported as “xxx (activity was measured to be less than 2.0 μM)”. On M1 muscarinic receptor, the Emax lay within 25 to 100% and the “M1 Activity” value is on record as “xxx (activity was measured to be less than 2.0 μM)”.
Regarding `CCOC(=O)N1CCC(N2CCC3(CC2)CN(C(=O)CCOC)c2ccc(F)cc23)CC1` [compound 714], at M4 muscarinic receptor, the maximal response (Emax) fell in the range of 25 to 100% and the “M4 Activity” value is “xxx (activity was measured to be less than 2.0 μM)”. Besides, at M1 muscarinic receptor, the Emax was > 100% and the “M1 Activity” value is reported as “xxx (activity was measured to be less than 2.0 μM)”.
In the case of `O=C1CC2(CCN(C3CCCCC3)CC2)c2cc(Cl)ccc21` [compound 715], on M4 muscarinic receptor, the Emax was 25 to 100% and the “M4 Activity” value was “xxx (activity was measured to be less than 2.0 μM)”. On M1 muscarinic receptor, the Emax was 25 to 100% and the “M1 Activity” value is given as “xxx (activity was measured to be less than 2.0 μM)”.

The record behind these values is patent US7786141B2 (Vertex Pharmaceuticals Incorporated, priority 2004, dated 2010).
